Data published in patent US4113774A, “N-(Dichloroacetyl) diamine compounds and process of preparing same” (Sterling Drug Inc., priority 1977, dated 1978).

Tests used:
[1] = system: aldehyde dehydrogenase; details: cited from earlier work; for effectiveness compared with disulfiram: evaluation said to considerably underestimate effectiveness
[2] = man and animals; cited from earlier work
[3] = biological target: liver acetaldehyde dehydrogenase; assay: Inhibition of liver acetaldehyde dehydrogenase (I50); format: biochemical; details: bovine liver enzyme, propionaldehyde substrate, NAD, pH 9.6, 26.0 °C, 15 minutes; read-out: I50 values (molar concentration for 50% inhibition) for inhibition of liver acetaldehyde dehydrogenase
Text: The specific activity of the partially purified enzyme preparation was 172 units per milligram of protein. The assay system contained 30μ moles of sodium pyrophosphate buffer with a final pH of 9.6, 135μ moles of propylene glycol to serve as a vehicle for the compound being tested, 0.5μ mole of propionaldehyde, 1μ mole of nicotinamide adenine dinucleotide and 120 units of enzyme to initiate the reaction in a total volume of 3.0 milliliters. The assay mixture was contained in 1 centimeter silica cuvettes. The reaction was followed by measuring the increase in optical density at 340 mμ with time on the Beckman du spectrophotometer which was equipped with dual thermospacers set to maintain the temperature of the cell compartment at 26.0 ± 0.1° C. by means of a circulating water bath (Haake Thermostat F, Berlin). Readings of optical density were taken each minute for 15 minutes. The optical density at 15 minutes corrected for optical density at zero time was used to calculate percent inhibition compared with controls which contained all constituents except the compound being tested. Fifty percent inhibition values (I50) were determined from first order reaction plots at multiple levels of the tested compound. Sodium pyrophosphate changes pH when diluted with the other reaction constitutents in water; so, this effect was compensated for to bring the final pH of the incubation mixture to 9.6.

[4] = system: E. criceti; details: cited from earlier work
[5] = system: antispermatogenic activity; details: Coulston et al.; Surrey U.S. Pat. No. 3,143,566; cited from earlier work
[6] = system: spermatogenesis; details: cited from earlier work
[7] = system: antispermatogenic activity; details: cited from earlier work

| SMILES | effectiveness compared with disulfiram [1] | side effect [2] | IC50 [3] | other results |
| --- | --- | --- | --- | --- |
| CCN(Cc1ccc(CN(CC)C(=O)C(Cl)Cl)cc1)C(=O)C(Cl)Cl [Win 13,099, N,N'-bis(dichloroacetyl)-N,N'-diethyl-1,4-bis(aminomethyl)benzene] | about as effective as disulfiram | a reaction to ethanol in man and animals |  |  |
| O=C(NCCCCCCCCNC(=O)C(Cl)Cl)c1ccc(Cl)c(Cl)c1 [Example B-2, N-(Dichloroacetyl)-N'-(3,4-dichlorobenzoyl)-1,8-octanediamine] |  |  | 820 nM |  |
| O=C(NCCCCCCCCNC(=O)C(Cl)Cl)c1ccc(Cl)cc1 [Example B-1, N-(dichloroacetyl)-N'-(4-chlorobenzoyl)-1,8-octanediamine] |  |  | 2700 nM |  |
| O=C(NCCCCCCCCNC(=O)C(Cl)Cl)C(Cl)Cl [Win 18,466, N,N'-Bis(dichloroacetyl)-1,8-octanediamine] | about as effective as disulfiram | a reaction to ethanol in man and animals |  | inhibitor of aldehyde dehydrogenase [1]: to be an inhibitor of aldehyde dehydrogenase; in vivo amebicidal activity against E. criceti in hamsters [4]: not to have in vivo amebicidal activity; antispermatogenic activity [5]: highly antispermatogenically-active; suppression of spermatogenesis in man [6]: to suppress spermatogenesis in man; antispermatogenic activity in rats [7]: to have antispermatogenic activity in rats |
| CCN(CC)C(=S)SSC(=S)N(CC)CC [disulfiram, bis(diethylthiocarbamoyl) disulfide] |  |  | 13000 nM |  |
